Source: ChEMBL document CHEMBL5316345, “Discovery of the Potent and Selective MC4R Antagonist PF-07258669 for the Potential Treatment of Appetite Loss” (J Med Chem, 2023)
The source made the active and inactive calls. No cut-off for these calls is given here.

What was measured:
[1] = Clearance in Beagle dog plasma at 1 mg/kg, iv measured at 0.033 to 24 hrs by LC-MS/MS analysis; type: ADME, organism-based, Canis lupus familiaris; conditions: time 0.033-24 hrs
[2] = target: 3',5'-cyclic-AMP phosphodiesterase 4D (Homo sapiens, UniProt Q08499); assay: Inhibition of human PDE4D3
Sequence of 3',5'-cyclic-AMP phosphodiesterase 4D (Q08499 whole entry): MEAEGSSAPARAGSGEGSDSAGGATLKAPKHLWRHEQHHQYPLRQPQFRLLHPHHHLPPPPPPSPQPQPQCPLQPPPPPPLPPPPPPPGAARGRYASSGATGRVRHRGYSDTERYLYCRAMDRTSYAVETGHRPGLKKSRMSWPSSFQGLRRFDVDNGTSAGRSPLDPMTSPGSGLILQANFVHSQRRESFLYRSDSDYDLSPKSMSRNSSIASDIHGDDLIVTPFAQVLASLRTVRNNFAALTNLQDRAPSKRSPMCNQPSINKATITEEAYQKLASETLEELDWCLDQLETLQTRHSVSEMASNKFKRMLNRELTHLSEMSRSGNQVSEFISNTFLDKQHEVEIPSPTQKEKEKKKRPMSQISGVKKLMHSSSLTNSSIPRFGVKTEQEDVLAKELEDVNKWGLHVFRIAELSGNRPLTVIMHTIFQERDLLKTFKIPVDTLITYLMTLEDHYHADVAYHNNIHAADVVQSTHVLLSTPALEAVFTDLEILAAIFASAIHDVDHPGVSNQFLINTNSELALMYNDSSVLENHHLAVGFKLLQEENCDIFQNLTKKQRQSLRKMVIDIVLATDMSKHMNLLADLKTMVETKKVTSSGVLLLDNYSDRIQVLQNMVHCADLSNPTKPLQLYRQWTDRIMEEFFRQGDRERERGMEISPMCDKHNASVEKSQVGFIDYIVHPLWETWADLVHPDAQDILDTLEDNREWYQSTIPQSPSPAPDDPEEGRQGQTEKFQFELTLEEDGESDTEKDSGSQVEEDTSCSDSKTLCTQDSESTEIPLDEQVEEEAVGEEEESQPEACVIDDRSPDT

Mus musculus [3] = assay: Effect on body weight in anorexia/cachexia mouse model assessed as increase in food intake administered twice a day for 20 days and measured at 1 to 21 days; type: functional, organism-based; conditions: dose 0.3-10 mg/kg, time 1-21 day
[4] = target: Sodium channel protein type 5 subunit alpha (Homo sapiens, UniProt Q14524); assay: Inhibition of recombinant human Nav1.5 expressed in CHO cells by whole cell voltage clamp electrophysiology recording; type: cell-based
[5] = Octanol-water distribution coefficient, logD of the compound at pH 7.4 by RP-HPLC analysis; type: physicochemical
[6] = Volume of distribution at steady state in Wistar Han rat at 1 mg/kg, iv measured at 0.033 to 24 hrs by LC-MS/MS analysis; type: ADME, organism-based; conditions: in vivo, time 0.033-24 hrs, read-out: Vdss
Mus musculus [7] = assay: Effect on body weight in anorexia/cachexia mouse model assessed as cumulative body weight gain at 10 mg/kg, po administered twice a day for 20 days and measured at 1 to 21 days; type: functional; conditions: time 1-21 day
Mus musculus [8] = assay: Effect on body weight in anorexia/cachexia mouse model assessed as reduction in cumulative food intake at 10 mg/kg, po administered twice a day for 20 days and measured at 1 to 21 days; type: functional; design: scale not given: the % may be the effect or the level left; conditions: time 20 day
[9] = target: Dual 3',5'-cyclic-AMP and -GMP phosphodiesterase 11A (Homo sapiens, UniProt Q9HCR9); assay: Inhibition of human PDE11A4
Sequence of Dual 3',5'-cyclic-AMP and -GMP phosphodiesterase 11A (Q9HCR9 whole entry): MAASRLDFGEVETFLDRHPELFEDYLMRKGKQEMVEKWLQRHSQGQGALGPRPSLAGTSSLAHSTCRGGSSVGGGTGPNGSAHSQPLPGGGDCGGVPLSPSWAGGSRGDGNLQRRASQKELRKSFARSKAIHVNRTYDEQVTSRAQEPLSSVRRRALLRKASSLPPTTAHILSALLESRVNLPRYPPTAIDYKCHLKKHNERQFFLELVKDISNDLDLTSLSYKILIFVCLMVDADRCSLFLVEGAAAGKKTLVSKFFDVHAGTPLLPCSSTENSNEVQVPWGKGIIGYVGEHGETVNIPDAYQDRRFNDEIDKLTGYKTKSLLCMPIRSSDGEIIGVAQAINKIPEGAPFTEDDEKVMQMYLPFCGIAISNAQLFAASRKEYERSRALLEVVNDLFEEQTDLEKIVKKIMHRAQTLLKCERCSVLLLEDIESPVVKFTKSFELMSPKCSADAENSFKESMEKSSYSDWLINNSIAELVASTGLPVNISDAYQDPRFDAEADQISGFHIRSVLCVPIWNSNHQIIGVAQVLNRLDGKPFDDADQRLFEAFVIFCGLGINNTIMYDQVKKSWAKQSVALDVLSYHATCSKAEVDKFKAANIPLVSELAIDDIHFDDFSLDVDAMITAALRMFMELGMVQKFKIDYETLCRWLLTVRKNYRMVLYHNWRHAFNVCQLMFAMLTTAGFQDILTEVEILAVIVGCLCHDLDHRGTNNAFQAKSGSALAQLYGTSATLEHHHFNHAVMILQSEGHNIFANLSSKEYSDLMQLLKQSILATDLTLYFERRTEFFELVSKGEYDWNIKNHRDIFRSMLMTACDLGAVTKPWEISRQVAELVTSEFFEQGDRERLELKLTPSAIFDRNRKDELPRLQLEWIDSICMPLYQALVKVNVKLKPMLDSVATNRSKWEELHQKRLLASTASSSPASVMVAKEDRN

[10] = target: cGMP-dependent 3',5'-cyclic phosphodiesterase (Homo sapiens, UniProt O00408); assay: Inhibition of human PDE2A1
Sequence of cGMP-dependent 3',5'-cyclic phosphodiesterase (O00408 whole entry): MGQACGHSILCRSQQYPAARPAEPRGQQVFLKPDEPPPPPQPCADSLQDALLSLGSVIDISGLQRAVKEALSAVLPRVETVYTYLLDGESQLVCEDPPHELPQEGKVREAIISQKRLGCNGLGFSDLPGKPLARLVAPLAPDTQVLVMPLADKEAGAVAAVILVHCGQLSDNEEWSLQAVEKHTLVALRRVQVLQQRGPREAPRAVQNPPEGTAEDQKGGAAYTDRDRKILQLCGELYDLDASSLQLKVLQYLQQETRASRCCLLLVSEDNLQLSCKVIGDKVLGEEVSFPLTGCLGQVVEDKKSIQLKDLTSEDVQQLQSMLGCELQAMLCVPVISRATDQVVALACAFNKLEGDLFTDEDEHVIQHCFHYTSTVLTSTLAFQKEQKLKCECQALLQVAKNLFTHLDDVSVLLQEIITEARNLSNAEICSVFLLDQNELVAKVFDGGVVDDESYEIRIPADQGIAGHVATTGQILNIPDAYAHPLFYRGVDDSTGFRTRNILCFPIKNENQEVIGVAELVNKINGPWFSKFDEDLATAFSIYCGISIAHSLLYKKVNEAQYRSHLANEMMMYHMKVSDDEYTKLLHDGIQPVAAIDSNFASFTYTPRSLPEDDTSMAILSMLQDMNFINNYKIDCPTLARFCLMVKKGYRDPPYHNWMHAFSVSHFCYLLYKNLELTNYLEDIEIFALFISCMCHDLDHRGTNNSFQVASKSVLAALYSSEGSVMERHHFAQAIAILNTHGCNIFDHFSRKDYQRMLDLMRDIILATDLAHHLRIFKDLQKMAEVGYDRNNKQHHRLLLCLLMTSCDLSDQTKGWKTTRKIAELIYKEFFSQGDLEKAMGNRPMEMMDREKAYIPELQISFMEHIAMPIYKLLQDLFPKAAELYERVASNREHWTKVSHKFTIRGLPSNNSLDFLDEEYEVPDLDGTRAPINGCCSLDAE

[11] = AUC (0 to infinity) in Beagle dog at 1 mg/kg, po measured at 0.25 to 24 hrs by LC-MS/MS analysis; type: ADME, organism-based, Canis lupus familiaris; design: time upper 24 hrs, time lower 0.25 hrs, dose 1 mg/kg, route po; conditions: in vivo
Mus musculus [12] = assay: Effect on body weight in anorexia/cachexia mouse model assessed as body weight gain administered twice a day for 20 days and measured at 1 to 21 days; type: functional, organism-based; conditions: dose 0.3-10 mg/kg, time 1-21 day
Mus musculus [13] = assay: Effect on body weight in anorexia/cachexia mouse model assessed as reduction in cumulative food intake at 3 mg/kg, po administered twice a day for 20 days and measured at 1 to 21 days; type: functional; design: scale not given: the % may be the effect or the level left; conditions: time 20 day
[14] = Half life in Wistar Han rat at 1 mg/kg, iv measured at 0.033 to 24 hrs by LC-MS/MS analysis; type: ADME, organism-based; conditions: in vivo, time 0.033-24 hrs
[15] = target: 3',5'-cyclic-AMP phosphodiesterase 7B (Homo sapiens, UniProt Q9NP56); assay: Inhibition of human PDE7B
Sequence of 3',5'-cyclic-AMP phosphodiesterase 7B (Q9NP56 whole entry): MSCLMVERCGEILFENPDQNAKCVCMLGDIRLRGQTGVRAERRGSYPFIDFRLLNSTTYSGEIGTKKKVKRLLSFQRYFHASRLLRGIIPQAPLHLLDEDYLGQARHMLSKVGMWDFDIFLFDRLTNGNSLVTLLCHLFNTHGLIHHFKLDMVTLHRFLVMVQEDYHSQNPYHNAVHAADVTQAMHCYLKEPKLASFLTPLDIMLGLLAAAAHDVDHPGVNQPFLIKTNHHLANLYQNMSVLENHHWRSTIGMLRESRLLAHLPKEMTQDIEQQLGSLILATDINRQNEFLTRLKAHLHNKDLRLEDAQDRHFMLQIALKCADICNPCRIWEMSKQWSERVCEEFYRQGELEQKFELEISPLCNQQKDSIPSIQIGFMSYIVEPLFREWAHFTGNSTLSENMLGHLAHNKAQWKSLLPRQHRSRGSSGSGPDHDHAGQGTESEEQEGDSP

[16] = AUClast in Wistar Han rat at 1 mg/kg, iv measured at 0.033 to 24 hrs by LC-MS/MS analysis; type: ADME, organism-based; design: dose 1 mg/kg, time upper 24 hrs, time lower 0.033 hrs, route iv; conditions: in vivo
[17] = target: High affinity cGMP-specific 3',5'-cyclic phosphodiesterase 9A (Homo sapiens, UniProt O76083); assay: Inhibition of human PDE9A1
[18] = target: cAMP and cAMP-inhibited cGMP 3',5'-cyclic phosphodiesterase 10A (Homo sapiens, UniProt Q9Y233); assay: Inhibition of human PDE10A1
[19] = Clearance in Wistar Han rat plasma at 1 mg/kg, iv measured at 0.033 to 24 hrs by LC-MS/MS analysis; type: ADME, organism-based; conditions: time 0.033-24 hrs
[20] = Passive apparent permeability in MDCKII-LE cells; type: ADME, cell-based, Canis lupus familiaris; conditions: dog, MDCK; read-out: permeability (converted)
[21] = target: Voltage-gated inwardly rectifying potassium channel KCNH2 (Homo sapiens, UniProt Q12809); assay: Inhibition of hERG expressed in CHO cells stably at -80 mV holding potential by automated patch clamp method; type: toxicity, cell-based
Sequence of Voltage-gated inwardly rectifying potassium channel KCNH2 (Q12809 whole entry): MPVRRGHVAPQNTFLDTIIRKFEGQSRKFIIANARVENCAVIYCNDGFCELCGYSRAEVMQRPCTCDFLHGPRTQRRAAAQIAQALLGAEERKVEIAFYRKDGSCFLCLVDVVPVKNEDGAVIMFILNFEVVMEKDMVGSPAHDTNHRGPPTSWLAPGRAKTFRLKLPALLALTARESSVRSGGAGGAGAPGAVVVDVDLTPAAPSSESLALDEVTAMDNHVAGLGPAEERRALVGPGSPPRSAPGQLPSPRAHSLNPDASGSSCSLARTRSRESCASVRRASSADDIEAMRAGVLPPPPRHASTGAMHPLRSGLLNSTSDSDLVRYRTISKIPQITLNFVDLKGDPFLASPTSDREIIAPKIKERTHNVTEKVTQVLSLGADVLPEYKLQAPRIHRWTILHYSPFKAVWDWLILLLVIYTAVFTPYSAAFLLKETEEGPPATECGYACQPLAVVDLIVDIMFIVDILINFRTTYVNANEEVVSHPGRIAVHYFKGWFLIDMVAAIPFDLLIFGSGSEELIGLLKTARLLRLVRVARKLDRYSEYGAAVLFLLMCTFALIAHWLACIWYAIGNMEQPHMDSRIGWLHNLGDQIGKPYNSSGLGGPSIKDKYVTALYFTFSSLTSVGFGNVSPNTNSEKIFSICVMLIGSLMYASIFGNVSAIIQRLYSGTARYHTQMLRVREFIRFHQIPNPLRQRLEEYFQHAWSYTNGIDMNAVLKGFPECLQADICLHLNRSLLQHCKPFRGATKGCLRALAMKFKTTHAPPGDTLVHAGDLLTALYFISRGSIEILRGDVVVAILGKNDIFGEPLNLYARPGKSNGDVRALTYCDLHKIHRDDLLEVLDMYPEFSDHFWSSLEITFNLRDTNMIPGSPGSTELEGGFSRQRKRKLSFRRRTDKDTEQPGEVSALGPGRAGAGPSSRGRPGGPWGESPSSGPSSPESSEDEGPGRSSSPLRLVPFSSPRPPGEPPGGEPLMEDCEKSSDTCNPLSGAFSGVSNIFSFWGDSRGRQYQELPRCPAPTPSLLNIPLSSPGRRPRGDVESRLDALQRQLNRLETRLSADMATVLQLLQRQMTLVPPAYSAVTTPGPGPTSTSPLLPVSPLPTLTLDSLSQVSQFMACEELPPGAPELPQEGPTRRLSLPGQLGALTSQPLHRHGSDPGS

Mus musculus [22] = assay: Effect on body weight in anorexia/cachexia mouse model assessed as reduction in cumulative food intake at 1 mg/kg, po administered twice a day for 20 days and measured at 1 to 21 days; type: functional; design: scale not given: the % may be the effect or the level left; conditions: time 1-21 day
Cytochrome P450 3A = Cytochrome P450 3A (Homo sapiens, UniProt P08684+P20815+Q9HB55+P24462); assay: Time dependent inhibition of CYP3A (unknown origin) at 10 uM relative to control; type: ADME, protein assay
[23] = AUClast in Beagle dog at 1 mg/kg, iv measured at 0.033 to 24 hrs by LC-MS/MS analysis; type: ADME, organism-based, Canis lupus familiaris; design: dose 1 mg/kg, time 0.033-24 hrs, route iv; conditions: in vivo
[24] = Displacement of [125I]-NDP-alpha-MSH from dog MC4R expressed in CHO cells by microbeta counter analysis; type: cell-based, Canis lupus familiaris
Mus musculus [25] = assay: Effect on body weight in anorexia/cachexia mouse model assessed as cumulative body weight gain at 3 mg/kg, po administered twice a day for 20 days and measured at 1 to 21 days; type: functional; conditions: time 1-21 day
[26] = target: Dual specificity calcium/calmodulin-dependent 3',5'-cyclic nucleotide phosphodiesterase 1B (Homo sapiens, UniProt Q01064); assay: Inhibition of human PDE1B1
[27] = AUClast in Wistar Han rat at 5 mg/kg, po measured at 0.083 to 24 hrs by LC-MS/MS analysis; type: ADME, organism-based; design: time upper 24 hrs, dose 5 mg/kg, time lower 0.083 hrs, route po; conditions: in vivo
[28] = Half life in Beagle dog at 1 mg/kg, po measured at 0.25 to 24 hrs by LC-MS/MS analysis; type: ADME, organism-based, Canis lupus familiaris; conditions: in vivo, time 0.25-24 hrs
[29] = target: Melanocyte-stimulating hormone receptor (Homo sapiens, UniProt Q01726); assay: Agonist activity at human MC1R expressed in CHO cells assessed as increase in alpha-MSH induced cAMP level measured for 60 mins; type: functional, cell-based
Melanocortin receptor 5 = Melanocortin receptor 5 (Homo sapiens, UniProt P33032); assay: Displacement of [125I]-NDP-alpha-MSH from human MC5R expressed in CHO cells measured for 2 hrs by microbeta counter analysis; type: cell-based
Sequence of Melanocortin receptor 5 (P33032 whole entry): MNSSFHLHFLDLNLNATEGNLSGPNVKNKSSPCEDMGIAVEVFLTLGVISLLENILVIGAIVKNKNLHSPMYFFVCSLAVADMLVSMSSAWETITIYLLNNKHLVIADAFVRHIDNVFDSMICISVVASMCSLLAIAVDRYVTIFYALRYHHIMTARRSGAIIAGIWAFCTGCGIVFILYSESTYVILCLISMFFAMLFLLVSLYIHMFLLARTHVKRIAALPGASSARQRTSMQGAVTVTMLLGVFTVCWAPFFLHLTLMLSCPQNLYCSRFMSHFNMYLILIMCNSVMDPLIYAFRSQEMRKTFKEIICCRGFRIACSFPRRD

Mus musculus [30] = assay: Effect on body weight in anorexia/cachexia mouse model assessed as reduction in cumulative food intake at 0.3 mg/kg, po administered twice a day for 20 days and measured at 1 to 21 days; type: functional; design: scale not given: the % may be the effect or the level left; conditions: time 1-21 day
[31] = target: Adrenocorticotropic hormone receptor (Homo sapiens) (UniProt Q01718); assay: Agonist activity at human MC2R expressed in CHO cells assessed as increase in alpha-MSH induced cAMP level measured for 60 mins; type: functional, cell-based
Sequence of Adrenocorticotropic hormone receptor (Homo sapiens) (Q01718 whole entry): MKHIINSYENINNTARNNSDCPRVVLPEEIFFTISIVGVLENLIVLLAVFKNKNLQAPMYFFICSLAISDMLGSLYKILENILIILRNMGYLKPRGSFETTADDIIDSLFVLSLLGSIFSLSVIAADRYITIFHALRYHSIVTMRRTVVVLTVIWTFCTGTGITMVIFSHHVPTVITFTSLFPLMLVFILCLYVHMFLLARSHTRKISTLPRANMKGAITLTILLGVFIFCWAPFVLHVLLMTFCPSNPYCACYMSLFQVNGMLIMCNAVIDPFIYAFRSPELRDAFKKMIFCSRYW

Melanocortin receptor 4 = Melanocortin receptor 4 (Rattus norvegicus, UniProt P70596); assay: Displacement of [125I]-NDP-alpha-MSH from rat MC4R expressed in CHO cells by microbeta counter analysis; type: cell-based
[32] = Oral bioavailability in Beagle dog at 1 mg/kg measured at 0.25 to 24 hrs by LC-MS/MS analysis; type: ADME, organism-based, Canis lupus familiaris; conditions: in vivo, time 0.25-24 hrs
[33] = Lipophilicity, logD of compound at pH 7.4 by shake flask method; type: physicochemical; conditions: buffer
[34] = Cmax in Wistar Han rat at 5 mg/kg, po measured at 0.083 to 24 hrs by LC-MS/MS analysis; type: ADME, organism-based; design: dose 5 mg/kg, time upper 24 hrs, time lower 0.083 hrs, route po; conditions: in vivo
[35] = Tmax in Wistar Han rat at 5 mg/kg, po measured at 0.083 to 24 hrs by LC-MS/MS analysis; type: ADME, organism-based; conditions: in vivo, time 0.083-24 hrs
Mus musculus [36] = assay: Effect on body weight in anorexia/cachexia mouse model assessed as cumulative body weight gain at 1 mg/kg, po administered twice a day for 20 days and measured at 1 to 21 days; type: functional; conditions: time 1-21 day

In the case of `COc1cc([C@@H](C)C(=O)N2CC[C@@]3(COc4cc(-c5ncccn5)c(C)nc4N3)C2)c(F)cn1`, the clearance [1] is reported as 11 mL/min/kg, the IC50 [2] is reported as greater than 50 µM and the Activity (Mus musculus [3]) is reported as “Dose-Dependent Effect”. It also gave an IC50 [4] greater than 100 µM, a logD [5] of 2.6 and a Vd [6] of 0.95 L/kg. For the same compound, the Activity (Mus musculus [7]) was 22%, the Activity (Mus musculus [8]) was 111% and the IC50 [9] was greater than 50 µM. For the same compound, the IC50 [10] was greater than 50 µM, the AUC [11] was 4610 ng·h/mL and the Activity (Mus musculus [12]) was “Dose-Dependent Effect”. It also gave an Activity (Mus musculus [13]) of 40%, a half-life [14] of 1 h and an IC50 [15] greater than 50 µM. It also gave an AUC(0-t) [16] of 780 ng·h/mL, an IC50 [17] greater than 50 µM and an IC50 [18] greater than 50 µM. The clearance [19] was 21 mL/min/kg, the Papp [20] was 0.467 ×10⁻⁶ cm/s and the IC50 [21] was 27 µM. The Activity (Mus musculus [22]) was 26%, the K (Cytochrome P450 3A) was 0.09 min⁻¹ and the AUC(0-t) [23] was 1640 ng·h/mL. For the same compound, the Ki [24] was 0.094 nM, the Activity (Mus musculus [25]) was 9% and the IC50 [26] was greater than 50 µM. For the same compound, the AUC(0-t) [27] was 1110 ng·h/mL, the half-life [28] was 3.6 h and the Activity [29] was “inactive”. For the same compound, the Ki (Melanocortin receptor 5) was 0.84 µM, the Activity (Mus musculus [30]) was 23% and the Activity [31] was “inactive”. It also gave a Ki (Melanocortin receptor 4) of 0.00052 µM, an F [32] of 93% and a logD [33] of 2.6. The Cmax [34] was 600 ng/mL, the Tmax [35] was 0.5 h and the Activity (Mus musculus [36]) was 5%.
